For one compound, IC50 and ED50 results are on record in patent publication EP0462831B1, “Bicyclic pyran derivatives and their use as inhibitors of 5-lipoxygenase” (ZENECA LIMITED, priority 1990, dated 1991).

Assay [1] has as its target T1, 5-LO (Homo sapiens, UniProt P09917).
T1 construct: incubating a test compound with heparinised human blood, prior to challenge with the calcium ionophore A23187; endogenous in cells; host or cells: blood cells in heparinised human whole blood
T1 sequence (P09917 1-674): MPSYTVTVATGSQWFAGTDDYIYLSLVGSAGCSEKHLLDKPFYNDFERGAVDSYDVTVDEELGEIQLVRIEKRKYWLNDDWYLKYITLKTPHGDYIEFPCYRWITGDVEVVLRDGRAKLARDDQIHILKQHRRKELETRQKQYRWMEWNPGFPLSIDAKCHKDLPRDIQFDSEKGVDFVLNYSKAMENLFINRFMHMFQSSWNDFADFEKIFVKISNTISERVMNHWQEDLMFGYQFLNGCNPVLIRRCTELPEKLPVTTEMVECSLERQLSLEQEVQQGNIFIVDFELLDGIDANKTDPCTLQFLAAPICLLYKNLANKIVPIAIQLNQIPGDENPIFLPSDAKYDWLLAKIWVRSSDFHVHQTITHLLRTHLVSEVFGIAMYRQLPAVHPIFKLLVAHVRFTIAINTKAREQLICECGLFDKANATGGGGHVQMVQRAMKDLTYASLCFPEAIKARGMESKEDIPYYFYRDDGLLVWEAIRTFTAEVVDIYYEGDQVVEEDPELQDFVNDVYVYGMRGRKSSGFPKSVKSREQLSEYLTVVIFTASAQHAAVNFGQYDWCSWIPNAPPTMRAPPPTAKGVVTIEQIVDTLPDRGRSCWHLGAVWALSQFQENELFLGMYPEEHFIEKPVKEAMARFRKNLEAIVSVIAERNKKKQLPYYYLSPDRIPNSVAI
Kind of assay: Test b): heparinised human blood challenged with calcium ionophore A23187, radioimmunoassay of LTB₄. It is filed as cell-based. To be noted: A23187 challenge, read-out: IC₅₀ (LTB₄). Here is the method:
As stated previously, the novel compounds of the formula I are inhibitors of the enzyme 5-LO. […] This test provides a measure of the intrinsic inhibitory properties of a test compound against soluble 5-LO in an extracellular environment. • b) An in vitro assay system involving incubating a test compound with heparinised human blood, prior to challenge with the calcium ionophore A23187 and then indirectly measuring the inhibitory effects on 5-LO by assaying the amount of LTB₄ using specific radioimmunoassays described by Carey and Forder (F. Carey and R.A. Forder, Prostaglandins, Leukotrienes Med., 1986, 22, 57; Prostaglandins, 1984, 28, 666; Brit. J. Pharmacol. 1985, 84, 34P) which involve the use of a protein-LTB₄ conjugate produced using the procedure of Young et alia (Prostaglandins, 1983, 26(4), 605-613). The effects of a test compound on the enzyme cyclooxygenase (which is involved in the alternative metabolic pathway for arachidonic acid and gives rise to prostaglandins, thromboxanes and related metabolites) may be measured at the same time using the specific radioimmunoassay for thromboxane B₂(TxB₂) described by Carey and Forder (see above). This test provides an indication of the effects of a test compound against 5-LO and also cyclooxygenase in the presence of blood cells and proteins. […]

Assay [2] addresses T2, 5-LO (Rattus norvegicus, UniProt P12527).
T2 construct: liberation of LTB₄ induced by zymosan within an air pouch generated within the subcutaneous tissue of the back of male rats; from tissue; host or cells: subcutaneous air pouch of male rats (in vivo)
T2 sequence (P12527 1-673): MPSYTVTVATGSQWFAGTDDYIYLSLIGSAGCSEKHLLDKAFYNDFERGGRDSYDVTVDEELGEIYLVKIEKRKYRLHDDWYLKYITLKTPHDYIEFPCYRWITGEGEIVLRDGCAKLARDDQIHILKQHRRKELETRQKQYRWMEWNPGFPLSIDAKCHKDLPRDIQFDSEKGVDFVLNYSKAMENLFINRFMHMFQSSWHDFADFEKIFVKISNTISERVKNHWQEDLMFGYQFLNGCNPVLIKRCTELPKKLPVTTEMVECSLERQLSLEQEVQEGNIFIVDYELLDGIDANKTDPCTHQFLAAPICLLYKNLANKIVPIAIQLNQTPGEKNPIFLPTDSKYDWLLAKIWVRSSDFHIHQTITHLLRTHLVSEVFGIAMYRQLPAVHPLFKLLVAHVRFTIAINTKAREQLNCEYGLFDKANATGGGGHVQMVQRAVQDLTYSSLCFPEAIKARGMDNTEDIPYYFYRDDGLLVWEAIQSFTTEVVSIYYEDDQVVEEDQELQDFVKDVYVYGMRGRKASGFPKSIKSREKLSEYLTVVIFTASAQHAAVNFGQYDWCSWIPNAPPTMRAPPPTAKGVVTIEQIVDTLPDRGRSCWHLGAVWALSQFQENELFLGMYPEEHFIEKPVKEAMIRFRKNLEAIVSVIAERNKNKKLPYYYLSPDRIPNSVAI
Description: Test g): zymosan-induced liberation of LTB₄ in a subcutaneous air pouch. Type of assay: in vivo, rats. The note with it: oral, 3 hours, read-out: oral ED₅₀(LTB₄).

For the compound `COC1(c2cccc(Sc3ccc4c(c3)n(C)c(=O)n4C)c2)CCOCC1` [Example 1, 4-[3-(1,3-dimethyl-2-oxo-2,3-dihydrobenzimidazol-5-ylthio)phenyl]-4-methoxy-tetrahydropyran], the IC50 at 5-LO [1] was 50 nM. For the same compound, the ED50 at 5-LO [2] was less than 2 mg/kg.
